Test results as given in patent US12090143B1, “4-chloro-N′-(2-(5-phenyl-1,3,4-oxadiazol-2-ylthio)acetoxy)benzimidamide as an antimicrobial compound” (KING FAISAL UNIVERSITY, priority 2023, dated 2024).

Columns and labels:
Format in all cases: cell-based
[1] = tested on: Chrysosporium keratinophilum; assay: Agar plate disc-diffusion, antifungal, Chrysosporium keratinophilum; details: Sabouraud's dextrose agar, 37° C., 72 hours, DMSO zone subtracted
Method: (§1) The agar plate disc-diffusion method was applied. […] The discs were then placed onto the surface of agar plates (nutrient agar for bacteria and Sabouraud's dextrose agar for fungi) seeded with the test organism. Each plate contained 15 mL of the agar medium, previously seeded with 0.2 mL of the broth culture of each organism pregrown for 18 hours. The plates were incubated at 37° C. for 48 hours, and 72 hours for fungi. The inhibition zones was measured in mm. Discs impregnated with DMSO were used as a control, and its inhibition zone was subtracted from the tested compound actual inhibition zone.

Staphylococcus aureus = assay: Agar plate disc-diffusion, antibacterial, Staphylococcus aureus; details: nutrient agar, 37° C., 48 hours, DMSO zone subtracted
Method: as §1

Pseudomonas aeruginosa = assay: Agar plate disc-diffusion, antibacterial, Pseudomonas aeruginosa; details: nutrient agar, 37° C., 48 hours, DMSO zone subtracted
Method: as §1

Escherichia coli = assay: Agar plate disc-diffusion, antibacterial, Escherichia coli; details: nutrient agar, 37° C., 48 hours, DMSO zone subtracted
Method: as §1

Aspergillus flavus = assay: Agar plate disc-diffusion, antifungal, Aspergillus flavus; details: Sabouraud's dextrose agar, 37° C., 72 hours, DMSO zone subtracted
Method: as §1

Bacillus cereus = assay: Agar plate disc-diffusion, antibacterial, Bacillus cereus; details: nutrient agar, 37° C., 48 hours, DMSO zone subtracted
Method: as §1

[2] = A = concentration of comp. = 10,000 μL
[3] = B = concentration of comp. = 30,000 μL
[4] = C = concentration of comp. = 50,000 μL

`N/C(=N\OC(=O)CSc1nnc(-c2ccccc2)o1)c1ccc(Cl)cc1` [Compound 3, 4-chloro-N′-(2-(5-phenyl-1,3,4-oxadiazol-2-ylthio)acetoxy)benzimidamide] was tested, and the “inhibition zone, Chrysosporium keratinophilum, A” value [1, 2] was 35 mm, the “inhibition zone, Chrysosporium keratinophilum, B” value [1, 3] was 26 mm and the “inhibition zone, Chrysosporium keratinophilum, C” value [1, 4] was 42 mm. The “inhibition zone, Staphylococcus aureus, A” value (Staphylococcus aureus; [2]) was 25 mm, the “inhibition zone, Staphylococcus aureus, B” value (Staphylococcus aureus; [3]) was 27 mm and the “inhibition zone, Staphylococcus aureus, C” value (Staphylococcus aureus; [4]) was 39 mm. For the same molecule, the “inhibition zone, Pseudomonas aeruginosa, A” value (Pseudomonas aeruginosa; A =) was 20 mm, the “inhibition zone, Pseudomonas aeruginosa, B” value (Pseudomonas aeruginosa; [3]) was 26 mm and the “inhibition zone, Pseudomonas aeruginosa, C” value (Pseudomonas aeruginosa; [4]) was 40 mm. For the same molecule, the “inhibition zone, Escherichia coli, A” value (Escherichia coli; A =) was 28 mm, the “inhibition zone, Escherichia coli, B” value (Escherichia coli; [3]) was 36 mm and the “inhibition zone, Escherichia coli, C” value (Escherichia coli; [4]) was 53 mm. The “inhibition zone, Aspergillus flavus, A” value (Aspergillus flavus; [2]) was 23 mm, the “inhibition zone, Aspergillus flavus, B” value (Aspergillus flavus; [3]) was 27 mm and the “inhibition zone, Aspergillus flavus, C” value (Aspergillus flavus; [4]) was 39 mm. For the same molecule, the “inhibition zone, Bacillus Cereus, A” value (Bacillus cereus; [2]) was 26 mm, the “inhibition zone, Bacillus Cereus, B” value (Bacillus cereus; [3]) was 29 mm and the “inhibition zone, Bacillus Cereus, C” value (Bacillus cereus; [4]) was 39 mm.
